Experimental data reported in patent US20030144346A1, “Methods and compositions for regulation of 5-alpha reductase activity” (priority 1997, published 2003).

Columns and labels:
[1] = molecular target: T1, type 2 human 5α-reductase (HRED2) (Homo sapiens, UniProt P31213); experiment: Cell free assay of 5α-reductase, microsomes of rat 1A cells expressing type 2 isoenzyme (HRED2); assay type: biochemical; parameters: expressed in transfected cells; host or cells: rat 1A cells infected with pMV7 retrovirus; microsomes;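 also: labeled testosterone and its product dihydrotestosterone measured in microsomal reaction extracts via thin layer chromatography plus radioanalytic scanning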
T1 sequence (P31213 1-254): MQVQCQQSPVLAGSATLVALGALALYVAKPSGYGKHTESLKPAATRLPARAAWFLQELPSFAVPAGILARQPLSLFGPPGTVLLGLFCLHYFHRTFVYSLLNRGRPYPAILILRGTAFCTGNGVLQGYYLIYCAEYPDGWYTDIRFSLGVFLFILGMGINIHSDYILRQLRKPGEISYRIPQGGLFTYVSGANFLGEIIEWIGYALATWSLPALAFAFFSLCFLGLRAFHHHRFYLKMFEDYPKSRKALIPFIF

[2] = molecular target: T2, type 1 human 5α-reductase (HRED1) (Homo sapiens, UniProt P18405); experiment: Cell free assay of 5α-reductase, microsomes of rat 1A cells expressing type 1 isoenzyme (HRED1); assay type: biochemical; parameters: expressed in transfected cells; host or cells: rat 1A cells infected with pMV7 retrovirus; microsomes;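 also: microsomes from rat 1A cells expressing human type 1 5α-reductase, conversion of radiolabeled testosterone to dihydrotestosterone quantified by thin layer chromatography with radioanalytic scanning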
T2 sequence (P18405 1-259): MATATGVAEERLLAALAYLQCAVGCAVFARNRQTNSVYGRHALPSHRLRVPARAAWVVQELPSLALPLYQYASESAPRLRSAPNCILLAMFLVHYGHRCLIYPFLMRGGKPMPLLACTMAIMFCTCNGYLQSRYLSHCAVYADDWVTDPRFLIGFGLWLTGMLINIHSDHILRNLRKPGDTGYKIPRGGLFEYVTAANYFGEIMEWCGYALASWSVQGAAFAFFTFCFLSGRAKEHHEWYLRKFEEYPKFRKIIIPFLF

[3] = molecular target: T1, type 2 human 5α-reductase (HRED2); experiment: Whole cell assay of 5α-reductase, type 2 isoenzyme; assay type: cell-based; parameters: expressed in transfected cells; host or cells: rat 1A cells infected with pMV7 retrovirus; settings: for inhibition at 100 µM / HRED2 % Inhibition @ 100 μM: Table 7; for IC50: Table 7, read-out: HCRED2 IC50;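 as to all read-outs here: intact rat 1A cells genetically modified to carry human type 2 5α-reductase served as the enzyme source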
[4] = molecular target: T2, type 1 human 5α-reductase (HRED1); experiment: Whole cell assay of 5α-reductase, type 1 isoenzyme; assay type: cell-based; parameters: expressed in transfected cells; host or cells: rat 1A cells infected with pMV7 retrovirus;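 also: intact rat 1A cells engineered to express the human type 1 5α-reductase isozyme serve as the enzyme source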
[5] = cell free assay, Table 2 catechols, read-out: HRED2 IC50
[6] = cell free assay, Table 2 catechols, read-out: HRED1 IC50
[7] = whole cell assay, Table 7, read-out: HCRED1 IC50
[8] = cell free assay, Table 1 flavanoids, read-out: HRED2 IC50
[9] = read-out: HRED2 % Inhibition @ 100 uM
[10] = cell free assay, Table 1 flavanoids, read-out: HRED1 IC50
[11] = read-out: HRED1 % Inhibition @ 100 uM
[12] = 100 uM, cell free assay, Table 1, read-out: HRED2 % Inhibition @ 100 uM
[13] = 100 uM, cell free assay, Table 1, read-out: HRED1 % Inhibition @ 100 uM
[14] = cell free assay, Table 5 epigallocatechin derivatives, read-out: HRED2 IC50
[15] = cell free assay, Table 5 epigallocatechin derivatives, read-out: HRED1 IC50
[16] = cell-free assay, read-out: IC50, type 1 isoenzyme
[17] = 100 μM, cell free assay, Table 5
[18] = 100 uM, cell free assay, Table 2

Row | SMILES | inhibition at 100 µM [3] | IC50 [3] | inhibition at 100 µM ([4]; whole cell assay, Table 7) | IC50 [4, 7] | IC50 [1, 14] | IC50 [2, 15] | HRED2 % Inhibition @ 100 μM [1, 17] | HRED1 % Inhibition @ 100 μM [2, 17] | HRED2 % Inhibition @ 100 μM [3] | HRED1 % Inhibition @ 100 μM ([4]; whole cell assay, Table 7) | further results
1 | CCCCCCCCCCCCOC(=O)c1cc(O)c(O)c(O)c1 [Dodecylgallate] | 98% | 7 µM | 99% | 3 µM | – | – | – | – | – | – | inhibition at 100 µM ([1]; 100 uM, cell free assay, Table 2, read-out: HRED2 % Inhibition @ 100 uM): 36%; IC50 [1, 5]: > 100 µM; inhibition at 100 µM ([2]; 100 uM, cell free assay, Table 2, read-out: HRED1 % Inhibition @ 100 uM): 88%; IC50 [2, 6]: 43 µM; inhibitory activity in the whole cell assay, type 1 isoenzyme, in words ([4]; whole cell assay): active
2 | O=C(O[C@@H]1Cc2c(O)cc(O)cc2O[C@@H]1c1ccc(O)c(O)c1)c1cc(O)c(O)c(O)c1 [Epicatechin Gallate] | 0% | > 100 µM | 0% | > 100 µM | – | – | – | – | – | – | IC50 [1, 8]: 60 µM; inhibition at 100 µM [1, 9]: 83%; IC50 [2, 10]: 11 µM; inhibition at 100 µM [2, 11]: 100%
3 | Oc1cc(O)c2c(c1)O[C@H](c1ccc(O)c(O)c1)[C@H](O)C2 [Epicatechin] | 1% | > 100 µM | 0% | > 100 µM | – | – | – | – | – | – | inhibition at 100 µM [1, 12]: 4%; IC50 [1, 8]: > 100 µM; inhibition at 100 µM [2, 13]: 14%; IC50 [2, 10]: > 100 µM
4 | Oc1cc(O)c2c(c1)O[C@H](c1cc(O)c(O)c(O)c1)[C@H](O)C2 [Epigallocatechin] | 1% | > 100 µM | 15% | > 100 µM | > 100 µM | 62 µM | – | – | – | – | inhibition at 100 µM [1, 12]: 3%; inhibition at 100 µM ([1]; 100 μM, cell free assay, Table 5, read-out: HRED2 % Inhibition @ 100 μM): 30%; IC50 [1, 8]: > 100 µM; inhibition at 100 µM [2, 13]: 15%; inhibition at 100 µM ([2]; 100 μM, cell free assay, Table 5, read-out: HRED1 % Inhibition @ 100 μM): 61%; IC50 [2, 10]: > 100 µM
5 | O=c1c(O)c(-c2ccc(O)c(O)c2)oc2cc(O)ccc12 [Fisetin] | 27% | > 100 µM | 42% | > 100 µM | – | – | – | – | – | – | inhibition at 100 µM [1, 12]: 4%; IC50 [1, 8]: > 100 µM; inhibition at 100 µM [2, 13]: 97%; IC50 [2, 10]: 57 µM; IC50 [2, 16]: < 100 µM
6 | CCCCC/C=C\C/C=C\C/C=C\CCCCC(=O)O [Gamma-Linolenic Acid, Gamma-Linolenic Acid C18:3 CIS 6.9,12] | 86% | 20 µM | 91% | 22 µM | – | – | – | – | – | – | inhibition at 100 µM ([1]; 100 μM, cell free assay, Table 6, read-out: HRED2 % Inhibition @ 100 μM): 89%; IC50 ([1]; cell free assay, Table 6 fatty acids, read-out: HRED2 IC50): 11 µM; IC50 ([1]; cell-free assay, read-out: IC50, type 2 isoenzyme): 3 µM; IC50 ([2]; cell free assay, Table 6 fatty acids, read-out: HRED1 IC50): 5 µM; IC50 [2, 16]: 3 µM; inhibition at 100 µM ([2]; read-out: HRED1 % Inhibition @ 100 μM): 99%
7 | Cc1cc2c(C(C)C)c(O)c(O)c(C=O)c2c(O)c1-c1c(C)cc2c(C(C)C)c(O)c(O)c(C=O)c2c1O [Gossypol] | 99% | 6 µM | 100% | – | – | – | – | – | – | – | IC50 [1]: 21 µM; inhibition at 100 µM [1, 9]: 99%; IC50 [2]: 7 µM; inhibition at 100 µM [2, 11]: 99%; IC50 [4]: 7 µM; inhibitory activity in the whole cell assay, type 1 isoenzyme, in words ([4]; whole cell assay): active
8 | COc1cc(C(=O)OC2Cc3c(O)cc(O)cc3OC2c2cc(O)c(O)c(O)c2)cc(OC)c1OC (centres unmarked) [HZIV 63] | – | > 100 µM | – | > 100 µM | > 100 µM | 311 µM | 20% | 94% | 7% | 12% | –
9 | Cc1c(O)cc(C(=O)OC2Cc3c(O)cc(O)cc3OC2c2cc(O)c(O)c(O)c2)cc1O (centres unmarked) [HZIV 68] | – | > 100 µM | – | > 100 µM | 99 µM | 29 µM | 51% | 93% | 34% | 40% | –
10 | COc1cc(C(=O)OC2Cc3c(O)cc(O)cc3OC2c2cc(O)c(O)c(O)c2)cc(OC)c1O (centres unmarked) [HZIV 75] | – | 62 µM | – | 43 µM | > 100 µM | 29 µM | 21% | 97% | 72% | 83% | –
11 | COc1cc(CCNC(=O)C=Cc2ccc(O)c(O)c2)ccc1O [HZIV 90] | – | > 100 µM | – | > 100 µM | – | – | – | – | 14% | 34% | HRED2 % Inhibition @ 100 uM [1, 18]: 13%; IC50 [1, 5]: > 100 µM; HRED1 % Inhibition @ 100 uM [2, 18]: 23%; IC50 [2, 6]: > 100 µM
12 | CN(C)c1ccc(C(=O)OC2Cc3c(O)cc(O)cc3OC2c2cc(O)c(O)c(O)c2)cc1 (centres unmarked) [HZIV 92] | – | 80 µM | – | 64 µM | > 100 µM | 23 µM | 45% | 98% | 62% | 94% | –
13 | O=C(OC1Cc2c(O)cc(O)cc2OC1c1cc(O)c(O)c(O)c1)c1ccncc1 (centres unmarked) [HZIV 107] | – | > 100 µM | – | > 100 µM | > 100 µM | 98 µM | 39% | 52% | 2% | 23% | –
14 | O=C(OC1Cc2c(O)cc(O)cc2OC1c1cc(O)c(O)c(O)c1)c1ccc2ccccc2c1 (centres unmarked) [HZIV 120] | – | 57 µM | – | 49 µM | 66 µM | 23 µM | 97% | 99% | 96% | 97% | –
15 | CCCCCC=CCC=CCC=CCCCCC(=O)OC1Cc2c(O)cc(O)cc2OC1c1cc(O)c(O)c(O)c1 (centres unmarked) [HZIV 142] | – | 14 µM | – | 8 µM | 63 µM | 25 µM | 93% | 97% | 98% | 99% | –
16 | O=C(OC1Cc2c(O)cc(O)cc2OC1c1cc(O)c(O)c(O)c1)C1CCCCC1 (centres unmarked) [HZIV 144] | – | > 100 µM | – | > 100 µM | > 100 µM | 49 µM | 38% | 88% | 7% | 12% | –
